Experimental data as given in ChEMBL document CHEMBL4346671, “Synthesis and bioevaluation of diarylpyrazoles as antiproliferative agents” (Eur J Med Chem, 2019).
Calls of active or inactive are those of the source. No cut-off for these calls is given here.

Key:
[1] = test system: SGC-7901; assay: Antiproliferative activity against human SGC7901 cells measured after 72 hrs by MTT assay; assay type: functional, cell-based; settings: SGC-7901, 72 h
[2] = test system: KB; assay: Antiproliferative activity against human KB cells measured after 72 hrs by MTT assay; assay type: functional, cell-based
[3] = test system: HT-1080; assay: Antiproliferative activity against human HT1080 cells measured after 72 hrs by MTT assay; assay type: functional, cell-based; settings: HT-1080, 72 h
[4] = target: T1, Tubulin (Homo sapiens) (UniProt P68371+Q9H4B7+P0DPH7+P68366+Q13509+Q71U36+P04350+Q3ZCM7+P07437+P68363+Q9BQE3+Q6PEY2+Q13885+Q9BVA1+Q9BUF5); assay: Induction of microtubule depolymerization in human SGC7901 cells assessed as change in microtubule morphology at 2 fold antiproliferative IC50 measured after 24 hrs by DAPI staining based fluorescence microscopy; assay type: cell-based
[5] = test system: SGC-7901; assay: Cell cycle arrest in human SGC7901 cells assessed as increase in cell population at G2/M phase at 2 fold IC50 concentration measured after 12 hrs by propidium iodide staining based FACScan flow cytometry; assay type: functional
[6] = test system: SGC-7901; assay: Cell cycle arrest in human SGC7901 cells assessed as increase in cell population at G2/M phase at 2 fold IC50 concentration measured after 24 hrs by propidium iodide staining based FACScan flow cytometry; assay type: functional
[7] = target: T2, Tubulin (Sus scrofa) (UniProt P02554+P02550); settings: 4 uM
Description: Inhibition of porcine brain tubulin polymerization at 4 uM preincubated before GTP addition and measured at 1 min intervals for 90 mins by fluorescence based assay

[8] = target: T2, Tubulin (Sus scrofa); assay: Inhibition of porcine brain tubulin polymerization at 3 to 20 uM preincubated before GTP addition and measured at 1 min intervals for 90 mins by fluorescence based assay
[9] = target: Tubulin (Sus scrofa, UniProt P02554+P02550); assay: Inhibition of porcine brain tubulin polymerization preincubated before GTP addition and measured at 1 min intervals for 90 mins by fluorescence based assay
[10] = test system: SGC-7901; assay: Induction of polyploidy in human SGC7901 cells at 2 fold IC50 concentration measured after 72 hrs by propidium iodide staining based FACScan flow cytometry; assay type: functional, cell-based
[11] = test system: SGC-7901; assay: Cell cycle arrest in human SGC7901 cells assessed as accumulation of cell population in G2/M phase at 2 fold IC50 concentration for 12 to 72 hrs by propidium iodide staining based FACScan flow cytometry; assay type: functional; settings: TDE = time-dependent effect
[12] = test system: SGC-7901; assay: Cell cycle arrest in human SGC7901 cells assessed as increase in cell population at sub-G1 phase at 2 fold IC50 concentration measured after 36 hrs by propidium iodide staining based FACScan flow cytometry; assay type: functional
[13] = target: T1, Tubulin (Homo sapiens); assay: Inhibition of microtubule formation in human SGC7901 cells assessed as mitotic catastrophe at 2 fold IC50 concentration measured after 24 hrs by DAPI staining based fluorescence microscopy; assay type: cell-based
[14] = target: T1, Tubulin (Homo sapiens); assay: Inhibition of microtubule formation in human SGC7901 cells at 2 fold IC50 concentration measured after 24 hrs by DAPI staining based fluorescence microscopy; assay type: cell-based
[15] = test system: SGC-7901; assay: Cell cycle arrest in human SGC7901 cells assessed as decrease in cell population at G2/M phase at 2 fold IC50 concentration measured after 36 hrs by propidium iodide staining based FACScan flow cytometry; assay type: functional
[16] = test system: SGC-7901; assay: Cell cycle arrest in human SGC7901 cells assessed as decrease in cell population at G2/M phase at 2 fold IC50 concentration measured after 48 hrs by propidium iodide staining based FACScan flow cytometry; assay type: functional
[17] = test system: SGC-7901; assay: Cell cycle arrest in human SGC7901 cells assessed as decrease in cell population at G2/M phase at 2 fold IC50 concentration measured after 72 hrs by propidium iodide staining based FACScan flow cytometry; assay type: functional
[18] = test system: SGC-7901; assay: Cell cycle arrest in human SGC7901 cells assessed as increase in cell population at sub-G1 phase at 2 fold IC50 concentration measured after 48 hrs by propidium iodide staining based FACScan flow cytometry; assay type: functional
[19] = test system: SGC-7901; assay: Cell cycle arrest in human SGC7901 cells assessed as increase in cell population at sub-G1 phase at 2 fold IC50 concentration measured after 72 hrs by propidium iodide staining based FACScan flow cytometry; assay type: functional

T2 sequence (P02550 whole entry, looked up): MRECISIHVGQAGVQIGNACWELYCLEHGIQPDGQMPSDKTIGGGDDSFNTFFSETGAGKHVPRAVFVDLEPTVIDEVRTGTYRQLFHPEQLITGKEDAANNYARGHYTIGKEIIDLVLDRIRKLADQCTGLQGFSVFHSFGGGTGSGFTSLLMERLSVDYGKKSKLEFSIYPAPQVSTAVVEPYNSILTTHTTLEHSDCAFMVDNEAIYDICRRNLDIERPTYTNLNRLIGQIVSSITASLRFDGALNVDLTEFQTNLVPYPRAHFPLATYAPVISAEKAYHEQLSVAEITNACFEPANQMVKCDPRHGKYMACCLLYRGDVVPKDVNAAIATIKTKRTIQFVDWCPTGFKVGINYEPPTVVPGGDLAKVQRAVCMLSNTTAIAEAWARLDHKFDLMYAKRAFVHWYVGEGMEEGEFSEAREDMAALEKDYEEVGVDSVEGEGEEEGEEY
T2 sequence (P02554 whole entry, looked up): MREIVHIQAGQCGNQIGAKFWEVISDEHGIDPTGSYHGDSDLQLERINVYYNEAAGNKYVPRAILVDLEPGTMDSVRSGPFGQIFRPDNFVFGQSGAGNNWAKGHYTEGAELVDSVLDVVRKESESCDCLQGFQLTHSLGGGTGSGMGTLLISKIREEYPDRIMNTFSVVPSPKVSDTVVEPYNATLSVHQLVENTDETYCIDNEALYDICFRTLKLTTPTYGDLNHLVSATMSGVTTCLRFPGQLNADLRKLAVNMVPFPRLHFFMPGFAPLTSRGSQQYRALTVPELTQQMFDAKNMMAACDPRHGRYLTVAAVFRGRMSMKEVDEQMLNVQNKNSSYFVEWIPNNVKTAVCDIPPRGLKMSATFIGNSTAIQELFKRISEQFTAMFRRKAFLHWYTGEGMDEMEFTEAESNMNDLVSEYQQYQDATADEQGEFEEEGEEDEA

IC50 [1] [µM] | IC50 [2] [µM] | IC50 [3] [µM] | SMILES | further results
13 | 6.72 | 8.13 | COc1cc(-c2n[nH]cc2-c2ccc(OCc3ccccc3)cc2)cc(OC)c1OC | –
0.015 | 0.065 | 0.021 | CCOc1ccc(-c2n[nH]cc2-c2cc(OC)c(OC)c(OC)c2)cc1 | –
9.26 | 7.1 | 10 | COc1ccc(-c2c[nH]nc2-c2cc(OC)c(OC)c(OC)c2)cc1OCc1ccccc1 | –
0.044 | 0.025 | 0.026 | COc1ccc(-c2n[nH]cc2-c2cc(OC)c(OC)c(OC)c2)cc1 | –
3.81 | 0.62 | 1.92 | COc1ccc(-c2n[nH]cc2-c2cc(OC)c(OC)c(OC)c2)cc1OC | –
13.7 | 10.8 | 19.5 | COc1cc(-c2c(-c3ccc(OC(F)(F)F)cc3)cnn2C(C)=O)cc(OC)c1OC | –
0.013 | 0.028 | 0.096 | COc1ccc(-c2cnn(C(C)=O)c2-c2cc(OC)c(OC)c(OC)c2)cc1 | –
0.18 | 0.072 | 0.08 | COc1ccc(-c2c[nH]nc2-c2cc(OC)c(OC)c(OC)c2)cc1 | –
0.015 | 0.033 | 0.017 | COc1ccc(-c2cnn(C(C)=O)c2-c2cc(OC)c(OC)c(OC)c2)cc1O | –
30.1 | 84.2 | 18.4 | COc1ccc(-c2c(-c3cc(OC)c(OC)c(OC)c3)cnn2C(C)=O)cc1OCc1ccccc1 | –
0.031 | 0.023 | 0.014 | COc1ccc(-c2c(-c3cc(OC)c(OC)c(OC)c3)cnn2C(C)=O)cc1 | –
2.2 | 1.5 | 4.07 | COc1cccc(-c2c[nH]nc2-c2cc(OC)c(OC)c(OC)c2)c1 | –
28.2 | 86.2 | 20.8 | COc1ccc(-c2n[nH]cc2-c2cc(OC)c(OC)c(OC)c2)cc1OCc1ccccc1 | –
0.032 | 0.06 | 0.023 | COc1ccc(-c2[nH]ncc2-c2cc(OC)c(OC)c(OC)c2)cc1O | –
0.031 | 0.023 | 0.03 | COc1ccc(-c2cn[nH]c2-c2cc(OC)c(OC)c(OC)c2)cc1O | –
4.87 | 5.08 | 2.52 | COc1cc(-c2c(-c3ccc(O)cc3)cnn2C(C)=O)cc(OC)c1OC | –
14 | 32.8 | 19.3 | COc1cc(-c2n[nH]cc2-c2ccc(F)c(F)c2)cc(OC)c1OC | –
4.82 | 4.58 | 1.33 | COc1ccc(-c2cnn(C(C)=O)c2-c2cc(OC)c(OC)c(OC)c2)cc1OC | –
1.34 | 2.87 | 1.34 | COc1cc(-c2n[nH]cc2-c2ccc(OC(F)(F)F)cc2)cc(OC)c1OC | –
15.4 | 8.47 | 10 | COc1cc(-c2n[nH]cc2-c2ccc(O)cc2)cc(OC)c1OC | –
0.2 | 0.11 | 0.021 | CCOc1ccc(-c2c(-c3cc(OC)c(OC)c(OC)c3)cnn2C(C)=O)cc1 | –
2.03 | 0.7 | 1.21 | COc1ccc(-c2c(-c3cc(OC)c(OC)c(OC)c3)cnn2C(C)=O)cc1OC | –
0.03 | 0.035 | 0.017 | CCOc1ccc(-c2c[nH]nc2-c2cc(OC)c(OC)c(OC)c2)cc1 | –
36.5 | 5.44 | 4.84 | COc1ccc(-c2c[nH]nc2-c2cc(OC)c(OC)c(OC)c2)cc1OC | –
0.0093 | 0.022 | 0.012 | COc1ccc(-c2c(-c3cc(OC)c(OC)c(OC)c3)cnn2C(C)=O)cc1O | inhibition [8]: Dose-dependent effect; IC50 [9]: 7.73 µM; Activity [10]: Active; Activity [11]: Tde; Activity [12]: Active; Activity [4]: Active; inhibition [13]: Active; inhibition [14]: Active; Activity [5]: Active; Activity [6]: Active; Activity [15]: Active; Activity [16]: Active; Activity [17]: Active; Activity [18]: Active; Activity [19]: Active
0.015 | 0.036 | 0.019 | CCOc1ccc(-c2cnn(C(C)=O)c2-c2cc(OC)c(OC)c(OC)c2)cc1 | –
10.4 | 6.72 | 12.2 | COc1ccc(-c2cnn(C(C)=O)c2-c2cc(OC)c(OC)c(OC)c2)cc1OCc1ccccc1 | –
14.4 | 129 | 44.9 | COc1cc(-c2c(-c3ccc(OCc4ccccc4)cc3)cnn2C(C)=O)cc(OC)c1OC | –

SMILES | IC50 [1] [µM] | IC50 [2] [µM] | IC50 [3] [µM] | further results
COc1ccc(/C=C\c2cc(OC)c(OC)c(OC)c2)cc1O [COMBRETASTATIN A4] | 0.13 | 0.25 | 0.051 | Activity [4]: Active; Activity [5]: Active; Activity [6]: Active; inhibition [7]: Active
